From the NIST ThermoML archive (doi:10.1016/j.tca.2016.06.022)
± gives the expanded uncertainty stated by the source.

What was measured:
[1] = xn = mol fraction of the nth substance listed; conditions: 101 kPa, Liquid, Vibrating tube method, x2 = 0
[2] = 101 kPa, Liquid, Vibrating tube method

O [water] + NCCN
[1]
Conditions	mass density [kg/m3]
274.15 K	999.899 ± 0.5
275.15 K	999.94 ± 0.5
276.15 K	999.964 ± 0.5
277.15 K	999.972 ± 0.51
278.15 K	999.964 ± 0.5
279.15 K	999.94 ± 0.5
280.15 K	999.901 ± 0.5
281.15 K	999.848 ± 0.5
282.15 K	999.781 ± 0.5
283.15 K	999.699 ± 0.5
323.15 K	988.03 ± 0.5
333.15 K	983.191 ± 0.5

O [water]
[2]
Conditions	mass density [kg/m3]
274.15 K	999.899 ± 0.5
275.15 K	999.94 ± 0.5
276.15 K	999.964 ± 0.5
277.15 K	999.972 ± 0.51
278.15 K	999.964 ± 0.5
279.15 K	999.94 ± 0.5
280.15 K	999.901 ± 0.5
281.15 K	999.848 ± 0.5
282.15 K	999.781 ± 0.5
283.15 K	999.699 ± 0.5
323.15 K	988.03 ± 0.5
333.15 K	983.191 ± 0.5

NCCN [ethane-1,2-diamine]
[2]
Conditions	mass density [kg/m3]
288.15 K	901.26 ± 0.51
298.15 K	891.9 ± 0.51
308.15 K	882.49 ± 0.51
323.15 K	868.23 ± 0.51
333.15 K	858.6 ± 0.52
